Results: the NIST ThermoML archive (doi:10.1016/j.jct.2004.12.008)

Assay: xn = mol fraction of the nth substance listed
Settings: 101 kPa, Liquid

O=[N+]([O-])c1ccccc1 [nitrobenzene] + Cc1ccccc1
Settings	mass density [kg/m3]
293.15 K, x2 = 0	1202.95
293.15 K, x2 = 0.0629	1181.81
293.15 K, x2 = 0.1476	1153.37
293.15 K, x2 = 0.2138	1131.14
293.15 K, x2 = 0.2787	1109.35
293.15 K, x2 = 0.3587	1082.5
293.15 K, x2 = 0.4142	1063.89
293.15 K, x2 = 0.4831	1040.77
293.15 K, x2 = 0.5232	1027.31
293.15 K, x2 = 0.5771	1009.22
293.15 K, x2 = 0.6321	990.75
293.15 K, x2 = 0.6832	973.59
293.15 K, x2 = 0.7234	960.08
293.15 K, x2 = 0.8032	933.21
293.15 K, x2 = 0.8562	915.34
293.15 K, x2 = 0.9213	893.37
303.15 K, x2 = 0	1193.56
303.15 K, x2 = 0.0567	1174.37
303.15 K, x2 = 0.1332	1148.52
303.15 K, x2 = 0.185	1131.03
303.15 K, x2 = 0.2304	1115.73
303.15 K, x2 = 0.2798	1099.1
303.15 K, x2 = 0.3674	1069.64
303.15 K, x2 = 0.4026	1057.82
303.15 K, x2 = 0.4656	1036.69
303.15 K, x2 = 0.5072	1022.73
303.15 K, x2 = 0.5782	998.94
303.15 K, x2 = 0.6576	972.35
303.15 K, x2 = 0.7235	950.27
303.15 K, x2 = 0.7965	925.82
303.15 K, x2 = 0.8643	903.09
303.15 K, x2 = 0.9354	879.23
313.15 K, x2 = 0	1183.37
313.15 K, x2 = 0.0674	1160.46
313.15 K, x2 = 0.1534	1131.33
313.15 K, x2 = 0.1978	1116.33
313.15 K, x2 = 0.2576	1096.15
313.15 K, x2 = 0.3254	1073.34
313.15 K, x2 = 0.3789	1055.38
313.15 K, x2 = 0.4577	1028.98
313.15 K, x2 = 0.5067	1012.59
313.15 K, x2 = 0.5564	996
313.15 K, x2 = 0.6134	976.98
313.15 K, x2 = 0.674	956.78
313.15 K, x2 = 0.7435	933.64
313.15 K, x2 = 0.8134	910.37
313.15 K, x2 = 0.865	893.2
313.15 K, x2 = 0.9134	877.09
323.15 K, x2 = 0	1172.38
323.15 K, x2 = 0.0479	1156.07
323.15 K, x2 = 0.1289	1128.59
323.15 K, x2 = 0.1874	1108.81
323.15 K, x2 = 0.2671	1081.99
323.15 K, x2 = 0.3371	1058.51
323.15 K, x2 = 0.3961	1038.77
323.15 K, x2 = 0.4628	1016.54
323.15 K, x2 = 0.5342	992.79
323.15 K, x2 = 0.6056	969.11
323.15 K, x2 = 0.6854	942.7
323.15 K, x2 = 0.7245	929.78
323.15 K, x2 = 0.8056	903.01
323.15 K, x2 = 0.8543	886.94
323.15 K, x2 = 0.8965	873.03
323.15 K, x2 = 0.9423	857.93
333.15 K, x2 = 0	1160.59
333.15 K, x2 = 0.0575	1141.04
333.15 K, x2 = 0.1435	1111.97
333.15 K, x2 = 0.2345	1081.38
333.15 K, x2 = 0.2978	1060.21
333.15 K, x2 = 0.3534	1041.68
333.15 K, x2 = 0.4213	1019.15
333.15 K, x2 = 0.4896	996.55
333.15 K, x2 = 0.5634	972.23
333.15 K, x2 = 0.6233	952.54
333.15 K, x2 = 0.6856	932.12
333.15 K, x2 = 0.7435	913.17
333.15 K, x2 = 0.7947	896.44
333.15 K, x2 = 0.8634	874.02
333.15 K, x2 = 0.9067	859.9
333.15 K, x2 = 0.9424	848.26
343.15 K, x2 = 0	1148
343.15 K, x2 = 0.0523	1130.3
343.15 K, x2 = 0.1389	1101.17
343.15 K, x2 = 0.1924	1083.27
343.15 K, x2 = 0.2684	1057.97
343.15 K, x2 = 0.3289	1037.94
343.15 K, x2 = 0.3889	1018.15
343.15 K, x2 = 0.4521	997.4
343.15 K, x2 = 0.5123	977.7
343.15 K, x2 = 0.5931	951.38
343.15 K, x2 = 0.6532	931.86
343.15 K, x2 = 0.7234	909.14
343.15 K, x2 = 0.7923	886.89
343.15 K, x2 = 0.8534	867.19
343.15 K, x2 = 0.8811	858.27
343.15 K, x2 = 0.9421	838.64
353.15 K, x2 = 0	1134.61
353.15 K, x2 = 0.0442	1119.76
353.15 K, x2 = 0.1247	1092.87
353.15 K, x2 = 0.1842	1073.14
353.15 K, x2 = 0.2479	1052.11
353.15 K, x2 = 0.2943	1036.87
353.15 K, x2 = 0.3479	1019.33
353.15 K, x2 = 0.4109	998.83
353.15 K, x2 = 0.4671	980.61
353.15 K, x2 = 0.5239	962.27
353.15 K, x2 = 0.5791	944.5
353.15 K, x2 = 0.6321	927.5
353.15 K, x2 = 0.7913	876.69
353.15 K, x2 = 0.8423	860.48
353.15 K, x2 = 0.8742	850.36
353.15 K, x2 = 0.9311	832.32

O=[N+]([O-])c1ccccc1 [nitrobenzene] + Cc1ccccc1C
Settings	mass density [kg/m3]
293.15 K, x2 = 0	1202.95
293.15 K, x2 = 0.0498	1184.47
293.15 K, x2 = 0.1289	1155.75
293.15 K, x2 = 0.1892	1134.33
293.15 K, x2 = 0.2532	1112.04
293.15 K, x2 = 0.3234	1088.07
293.15 K, x2 = 0.3891	1066.07
293.15 K, x2 = 0.4421	1048.61
293.15 K, x2 = 0.4923	1032.31
293.15 K, x2 = 0.5534	1012.76
293.15 K, x2 = 0.6132	993.93
293.15 K, x2 = 0.6734	975.26
293.15 K, x2 = 0.7321	957.32
293.15 K, x2 = 0.7931	938.95
293.15 K, x2 = 0.8523	921.38
293.15 K, x2 = 0.9323	898.02
303.15 K, x2 = 0	1193.56
303.15 K, x2 = 0.0535	1173.86
303.15 K, x2 = 0.1123	1152.62
303.15 K, x2 = 0.1782	1129.29
303.15 K, x2 = 0.2423	1107.06
303.15 K, x2 = 0.3139	1082.76
303.15 K, x2 = 0.3687	1064.49
303.15 K, x2 = 0.4348	1042.84
303.15 K, x2 = 0.5023	1021.14
303.15 K, x2 = 0.5681	1000.36
303.15 K, x2 = 0.6189	984.56
303.15 K, x2 = 0.6892	963.04
303.15 K, x2 = 0.7422	947.07
303.15 K, x2 = 0.8021	929.26
303.15 K, x2 = 0.8731	908.5
303.15 K, x2 = 0.9298	892.17
313.15 K, x2 = 0	1183.37
313.15 K, x2 = 0.0621	1160.16
313.15 K, x2 = 0.1298	1135.44
313.15 K, x2 = 0.1924	1113.1
313.15 K, x2 = 0.2499	1092.98
313.15 K, x2 = 0.3234	1067.82
313.15 K, x2 = 0.3891	1045.81
313.15 K, x2 = 0.4348	1030.76
313.15 K, x2 = 0.5109	1006.14
313.15 K, x2 = 0.5782	984.82
313.15 K, x2 = 0.6328	967.81
313.15 K, x2 = 0.6902	950.21
313.15 K, x2 = 0.7591	929.44
313.15 K, x2 = 0.8244	910.1
313.15 K, x2 = 0.8823	893.22
313.15 K, x2 = 0.9357	877.88
323.15 K, x2 = 0	1172.38
323.15 K, x2 = 0.0634	1147.74
323.15 K, x2 = 0.1244	1124.62
323.15 K, x2 = 0.1824	1103.12
323.15 K, x2 = 0.2311	1085.44
323.15 K, x2 = 0.2893	1064.7
323.15 K, x2 = 0.3214	1053.45
323.15 K, x2 = 0.3855	1031.35
323.15 K, x2 = 0.4345	1014.79
323.15 K, x2 = 0.4902	996.28
323.15 K, x2 = 0.5689	970.68
323.15 K, x2 = 0.6321	950.58
323.15 K, x2 = 0.7024	928.68
323.15 K, x2 = 0.7842	903.78
323.15 K, x2 = 0.8725	877.55
323.15 K, x2 = 0.9432	857.03
333.15 K, x2 = 0	1160.59
333.15 K, x2 = 0.0598	1135.86
333.15 K, x2 = 0.1132	1114.33
333.15 K, x2 = 0.1935	1082.9
333.15 K, x2 = 0.2491	1061.75
333.15 K, x2 = 0.3011	1042.41
333.15 K, x2 = 0.3672	1018.4
333.15 K, x2 = 0.4189	1000.06
333.15 K, x2 = 0.4783	979.42
333.15 K, x2 = 0.5389	958.84
333.15 K, x2 = 0.5901	941.8
333.15 K, x2 = 0.6598	919.09
333.15 K, x2 = 0.7243	898.58
333.15 K, x2 = 0.7929	877.26
333.15 K, x2 = 0.8687	854.25
333.15 K, x2 = 0.9244	837.72
343.15 K, x2 = 0	1148
343.15 K, x2 = 0.0587	1121.63
343.15 K, x2 = 0.1321	1089.78
343.15 K, x2 = 0.1849	1067.6
343.15 K, x2 = 0.2378	1045.95
343.15 K, x2 = 0.3012	1020.73
343.15 K, x2 = 0.3519	1001.09
343.15 K, x2 = 0.4242	973.86
343.15 K, x2 = 0.4981	946.94
343.15 K, x2 = 0.5533	927.38
343.15 K, x2 = 0.6232	903.27
343.15 K, x2 = 0.6623	890.09
343.15 K, x2 = 0.7429	863.56
343.15 K, x2 = 0.8122	841.44
343.15 K, x2 = 0.8823	819.66
343.15 K, x2 = 0.9422	801.51
353.15 K, x2 = 0	1134.61
353.15 K, x2 = 0.0623	1103.66
353.15 K, x2 = 0.1133	1079.21
353.15 K, x2 = 0.1892	1044.18
353.15 K, x2 = 0.2489	1017.71
353.15 K, x2 = 0.3129	990.32
353.15 K, x2 = 0.3798	962.71
353.15 K, x2 = 0.4124	949.61
353.15 K, x2 = 0.483	922.01
353.15 K, x2 = 0.5345	902.52
353.15 K, x2 = 0.6084	875.41
353.15 K, x2 = 0.6631	855.98
353.15 K, x2 = 0.7249	834.64
353.15 K, x2 = 0.7931	811.8
353.15 K, x2 = 0.852	792.66
353.15 K, x2 = 0.9123	773.59
